Data as given in US11667552B2, “Silver ion biocide delivery system” (priority 2018, dated 2023).

How the values were obtained:
[1] = Silver ion concentration in effluent of water passed through a packed bed of silver material
Source text: In this method, water is passed through a bed of silver chloride which releases silver chloride into the water stream as it flows through the bed.

[2] = Text: Another method of releasing silver ion in a water stream is the use of metal oxides, carbonates, and salts containing silver. These metal salts may include, but are not limited to, metal oxides, metal halides, or metal salts containing silver, and/or metallic silver, or a combination, mixture or alloy of metals containing silver.
Certain embodiments can be designed with internal design elements to compensate for decreasing volume of material as it is used during operation, without the need to use springs and associated hardware.

Structure (SMILES) | Effluent Conc. Range Packed Bed (ug Ag^+/l) [1] [µg/L] | Max Theoretical Conc (ug salt/L) [2] | theoretical solubility limit [2] | silver ion in effluent from the AgCl bed ([1]; typical, depends on material morphology, temperature, pH)
[Br][Ag] [Silver Bromide] | 5 to 100 |  |  | 
[Cl][Ag] [Silver Chloride] | 200 to 800 | 1,900 ug/l | about 3 mg/l | about 100 μg/l
